One assay deals with BRAF V600E (Homo sapiens (Human), UniProt P15056, V600E). Put plainly: Z′-LYTE kinase inhibition assay (Invitrogen), BRAF V600E. In kind it is biochemical. The settings on record: Z′-LYTE method; for inhibition at 1 µM: 1 μM compound, read-out: % inhibition at 1 μM against BRAF V600E. Summed up:
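FRET-based Z′-LYTE peptide phosphorylation format in 50 mM HEPES pH 7.5, 0.01% BRIJ-35, 10 mM MgCl2, 1 mM EGTA with ATP. Kinase reaction 60 min at room temperature, then protease development step 60 min at room temperature before fluorescence read. IC50 from compound concentration versus percent inhibition.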

Another assay concerns the target KDR (VEGFR2) (Homo sapiens (Human), UniProt P35968). In words: Z′-LYTE kinase inhibition assay (Invitrogen), KDR. Type of assay: biochemical. The settings on record: Z′-LYTE method; for inhibition at 1 µM: 1 μM compound, read-out: % inhibition at 1 μM against KDR; for IC50: read-out: IC50 against KDR. In outline: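 Z′-LYTE FRET assay: 10 μL reactions with 0.5–11.7 ng KDR and 2 μM Tyr 01 peptide in 50 mM HEPES pH 7.5, 10 mM MgCl2, 1 mM EGTA, 0.01% BRIJ-35, 1 h at room temperature. Development Reagent B (1:256) added for 60 min, fluorescence read; IC50 from concentration–inhibition curves.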

For a further assay, the system named is A375 cells. In words: Inhibition of cancer cell growth, MTT assay, A375. Type of assay: cell-based. The conditions noted are these: Homo sapiens, A-375, 72 h exposure. In outline:
(§1)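 Cells grown in RPMI 1640 with 10% FBS were seeded at about 4000 cells/well, left 24 h, then exposed to compound for 72 h (1% DMSO final). MTT absorbance at 570 nm was compared with viable cells at time of addition to give growth inhibition; IC50 from concentration–inhibition plots, triplicates.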

The test system of the next assay is A549 cells. Put plainly: Inhibition of cancer cell growth, MTT assay, A549. The settings on record: Homo sapiens, A549, 72 h exposure. Type of assay: cell-based. Summed up: as §1

Chain of BRAF V600E (P15056 whole entry V600E): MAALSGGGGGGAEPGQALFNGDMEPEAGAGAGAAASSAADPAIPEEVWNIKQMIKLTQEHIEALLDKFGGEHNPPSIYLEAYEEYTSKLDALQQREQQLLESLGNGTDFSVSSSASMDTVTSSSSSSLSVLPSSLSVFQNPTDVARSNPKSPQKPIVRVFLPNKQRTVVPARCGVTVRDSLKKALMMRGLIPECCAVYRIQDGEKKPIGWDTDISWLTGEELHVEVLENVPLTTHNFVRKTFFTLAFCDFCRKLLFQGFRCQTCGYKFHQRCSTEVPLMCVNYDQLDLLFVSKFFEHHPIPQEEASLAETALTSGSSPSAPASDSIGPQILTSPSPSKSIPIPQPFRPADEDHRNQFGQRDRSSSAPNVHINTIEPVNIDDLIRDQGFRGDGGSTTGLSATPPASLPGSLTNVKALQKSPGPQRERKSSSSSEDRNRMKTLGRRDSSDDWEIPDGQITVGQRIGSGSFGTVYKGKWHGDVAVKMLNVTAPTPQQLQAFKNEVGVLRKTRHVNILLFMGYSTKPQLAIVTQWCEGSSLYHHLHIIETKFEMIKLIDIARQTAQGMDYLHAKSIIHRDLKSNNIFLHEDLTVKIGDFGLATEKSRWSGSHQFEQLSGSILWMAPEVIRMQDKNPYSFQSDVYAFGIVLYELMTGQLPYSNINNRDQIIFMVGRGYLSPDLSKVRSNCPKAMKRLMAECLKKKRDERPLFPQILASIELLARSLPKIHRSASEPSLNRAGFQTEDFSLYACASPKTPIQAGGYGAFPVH
Chain of KDR (VEGFR2) (P35968 20-1356): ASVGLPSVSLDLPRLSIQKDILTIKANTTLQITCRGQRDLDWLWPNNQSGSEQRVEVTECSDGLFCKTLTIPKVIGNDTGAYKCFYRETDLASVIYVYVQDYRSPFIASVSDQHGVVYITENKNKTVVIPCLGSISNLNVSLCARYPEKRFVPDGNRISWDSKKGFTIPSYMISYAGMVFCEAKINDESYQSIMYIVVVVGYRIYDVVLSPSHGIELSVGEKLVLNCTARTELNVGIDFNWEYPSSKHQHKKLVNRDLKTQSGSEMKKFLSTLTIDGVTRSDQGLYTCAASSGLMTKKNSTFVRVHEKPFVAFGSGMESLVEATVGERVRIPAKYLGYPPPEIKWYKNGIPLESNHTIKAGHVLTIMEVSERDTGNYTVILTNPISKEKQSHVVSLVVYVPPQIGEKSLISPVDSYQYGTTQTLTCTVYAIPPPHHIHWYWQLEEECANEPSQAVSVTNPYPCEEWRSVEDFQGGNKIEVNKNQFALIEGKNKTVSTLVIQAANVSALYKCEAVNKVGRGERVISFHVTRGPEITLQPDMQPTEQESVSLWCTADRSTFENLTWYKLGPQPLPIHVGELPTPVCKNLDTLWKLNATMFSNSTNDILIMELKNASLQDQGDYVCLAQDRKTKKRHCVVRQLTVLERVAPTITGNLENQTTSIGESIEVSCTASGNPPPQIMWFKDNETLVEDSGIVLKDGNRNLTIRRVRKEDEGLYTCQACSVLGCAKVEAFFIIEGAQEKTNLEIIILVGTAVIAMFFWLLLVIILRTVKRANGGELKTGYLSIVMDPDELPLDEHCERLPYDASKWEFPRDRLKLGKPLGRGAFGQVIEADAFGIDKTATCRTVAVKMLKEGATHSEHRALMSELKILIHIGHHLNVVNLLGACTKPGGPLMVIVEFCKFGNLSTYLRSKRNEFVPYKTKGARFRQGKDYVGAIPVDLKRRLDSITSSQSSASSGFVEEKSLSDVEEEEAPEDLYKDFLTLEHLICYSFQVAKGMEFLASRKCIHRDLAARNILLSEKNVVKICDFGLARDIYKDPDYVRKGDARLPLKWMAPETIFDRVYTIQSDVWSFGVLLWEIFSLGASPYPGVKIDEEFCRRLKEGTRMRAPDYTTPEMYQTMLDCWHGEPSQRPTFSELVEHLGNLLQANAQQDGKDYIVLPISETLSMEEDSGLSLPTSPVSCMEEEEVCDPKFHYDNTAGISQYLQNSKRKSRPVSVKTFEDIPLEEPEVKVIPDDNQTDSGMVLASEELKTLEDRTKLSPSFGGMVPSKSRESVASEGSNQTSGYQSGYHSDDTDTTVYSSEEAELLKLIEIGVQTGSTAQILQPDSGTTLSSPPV

As a reminder, the inhibition is how much of the control response was suppressed. In general, IC50 refers to the concentration that inhibits the measured activity by half. Take `O=C(Nc1cc(F)c(F)c(C(=O)c2ccc3nccnc3c2)c1)c1cccc(F)c1` [Compound C131, N-(3,4-difluoro-5-(quinoxaline-6-carbonyl)phenyl)-3-fluorobenzamide]: the values for the inhibition at 1 µM at BRAF V600E and at KDR (VEGFR2) were above 89% and below 70%, respectively. Also, the IC50 in the assay with A375 cells and in the assay on A549 cells was above 5 µM each time.

In the case of `NCCNc1cnc2ccc(C(=O)c3cc(NC(=O)Nc4ccc(F)c(F)c4)ccc3F)cc2n1` [Compound C091, 1-(3-(3-((2-aminoethyl)amino)quinoxaline-6-carbonyl)-4-fluorophenyl)-3-(3,4-difluorophenyl)urea], the inhibition at 1 µM at BRAF V600E and on KDR (VEGFR2) was above 89% in each case. Besides, the results for the 50% inhibitory concentration (IC50) with A375 cells and in the assay on A549 cells were 1 to 5 µM and above 5 µM, respectively.

Turning to `O=C(Nc1cc(F)cc(C(=O)c2ccc3ncc(N4CCOCC4)nc3c2)c1)c1ccc(Cl)c(C(F)(F)F)c1` [Compound C135, 4-chloro-N-(3-fluoro-5-(3-morpholinoquinoxaline-6-carbonyl)phenyl)-3-(trifluoromethyl)benzamide], the inhibition at 1 µM on BRAF V600E was 70 to 89%; on KDR (VEGFR2), below 70%. The half-maximal inhibitory concentration (IC50) with A375 cells is 1 to 5 µM; in the assay on A549 cells, above 5 µM.

On to `Cn1cc(-c2cnc3ccc(C(=O)c4cccc(NC(=O)c5ccc(Cl)c(C(F)(F)F)c5)c4)cc3n2)cn1` [Compound C130, 4-chloro-N-(3-(3-(1-methyl-1H-pyrazol-4-yl)quinoxaline-6-carbonyl)phenyl)-3-(trifluoromethyl)benzamide], for which the inhibition at 1 µM on BRAF V600E and on KDR (VEGFR2) was above 89% in each case. Moreover, the half-maximal inhibitory concentration (IC50) with A375 cells was 1 to 5 µM; with A549 cells, below 2 µM.

For `O=C(Nc1cccc(F)c1)Nc1cc(F)c(F)c(C(=O)c2ccc3nccnc3c2)c1` [Compound C024, 1-(3,4-difluoro-5-(quinoxaline-6-carbonyl)phenyl)-3-(3-fluorophenyl)urea], the inhibition at 1 µM is above 89% on BRAF V600E and 70 to 89% on KDR (VEGFR2). The IC50 is above 5 µM with A375 cells and below 2 µM in the assay on A549 cells.

With `O=C(Nc1cccc(F)c1)Nc1ccc(F)c(C(=O)c2ccc3nccnc3c2)c1` [Compound C013, 1-(4-fluoro-3-(quinoxaline-6-carbonyl)phenyl)-3-(3-fluorophenyl)urea], the inhibition at 1 µM at BRAF V600E is above 89%; on KDR (VEGFR2), 70 to 89%. Also, the IC50 fell in the range of 1 to 5 µM in the assay on A375 cells and 2 to 5 µM in the assay on A549 cells.

For `O=C(Nc1ccc(F)c(C(=O)c2ccc3nccnc3c2)c1)c1cccc(F)c1` [Compound C115, 3-fluoro-N-(4-fluoro-3-(quinoxaline-6-carbonyl)phenyl)benzamide], the inhibition at 1 µM at BRAF V600E was above 89%; at KDR (VEGFR2), 70 to 89%. Further, the IC50 with A375 cells and in the assay with A549 cells was above 5 µM each time.

Take `O=C(Nc1cccc(C(=O)c2ccc3ncc(N4CCCC4)nc3c2)c1)Nc1ccc(Cl)c(C(F)(F)F)c1` [Compound C021, 1-(4-chloro-3-(trifluoromethyl)phenyl)-3-(3-(3-(pyrrolidin-1-yl)quinoxaline-6-carbonyl)phenyl)urea]: the inhibition at 1 µM at BRAF V600E is 70 to 89%; on KDR (VEGFR2), above 89%. Besides, the IC50 was 1 to 5 µM in the assay with A375 cells and above 5 µM in the assay on A549 cells.

Regarding `NCCNc1cnc2ccc(C(=O)c3cc(NC(=O)Nc4cc(F)cc(F)c4)ccc3F)cc2n1` [Compound C092, 1-(3-(3-((2-aminoethyl)amino)quinoxaline-6-carbonyl)-4-fluorophenyl)-3-(3,5-difluorophenyl)urea], the values for the inhibition at 1 µM at BRAF V600E and on KDR (VEGFR2) were above 89% and 70 to 89%, respectively. For the same molecule, the figures for the IC50 in the assay on A375 cells and in the assay with A549 cells were 1 to 5 µM and above 5 µM, respectively.

In the case of `O=C(Nc1cc(F)cc(C(=O)c2ccc3ncc(N4CCOCC4)nc3c2)c1)Nc1ccc(F)c(Cl)c1` [Compound C044, 1-(3-chloro-4-fluorophenyl)-3-(3-fluoro-5-(3-morpholinoquinoxaline-6-carbonyl)phenyl)urea], the inhibition at 1 µM at BRAF V600E was above 89%; on KDR (VEGFR2), 70 to 89%. Also, the values for the IC50 in the assay on A375 cells and with A549 cells were 1 to 5 µM and 2 to 5 µM, respectively.

On to `O=C(Nc1ccc(Cl)c(Cl)c1)Nc1ccc(F)c(C(=O)c2ccc3ncc(N4CCOCC4)nc3c2)c1` [Compound C058, 1-(3,4-dichlorophenyl)-3-(4-fluoro-3-(3-morpholinoquinoxaline-6-carbonyl)phenyl)urea], for which the inhibition at 1 µM on BRAF V600E and on KDR (VEGFR2) was above 89% each time. Besides, the IC50 in the assay on A375 cells was below 1 µM; in the assay with A549 cells, below 2 µM.

On to `O=C(Nc1ccc(Cl)cc1)Nc1ccc(F)c(C(=O)c2ccc3nccnc3c2)c1` [Compound C074, 1-(4-chlorophenyl)-3-(4-fluoro-3-(quinoxaline-6-carbonyl)phenyl)urea], for which the results for the inhibition at 1 µM on BRAF V600E and at KDR (VEGFR2) were above 89% and below 70%, respectively. The values for the IC50 in the assay with A375 cells and in the assay on A549 cells were 1 to 5 µM and above 5 µM, respectively.

In the case of `O=C(Nc1cccc(F)c1)Nc1cc(F)cc(C(=O)c2ccc3nccnc3c2)c1` [Compound C025, 1-(3-fluoro-5-(quinoxaline-6-carbonyl)phenyl)-3-(3-fluorophenyl)urea], the inhibition at 1 µM is above 89% on BRAF V600E and below 70% at KDR (VEGFR2). Further, the half-inhibitory concentration (IC50) with A375 cells and in the assay on A549 cells was above 5 µM throughout.

As to `O=C(Nc1cccc(F)c1)Nc1cccc(C(=O)c2ccc3ncc(N4CCCC4)nc3c2)c1` [Compound C019, 1-(3-fluorophenyl)-3-(3-(3-(pyrrolidin-1-yl)quinoxaline-6-carbonyl)phenyl)urea], the inhibition at 1 µM on BRAF V600E and at KDR (VEGFR2) was above 89% throughout. In addition, the IC50 is below 0.1 µM at BRAF V600E (read-out: IC50 against BRAF V600E), below 0.1 µM at KDR (VEGFR2), above 5 µM with A375 cells and above 5 µM in the assay on A549 cells.

As for `O=C(Nc1ccc(F)c(Cl)c1)Nc1ccc(F)c(C(=O)c2ccc3ncc(N4CCOCC4)nc3c2)c1` [Compound C055, 1-(3-chloro-4-fluorophenyl)-3-(4-fluoro-3-(3-morpholinoquinoxaline-6-carbonyl)phenyl)urea], the inhibition at 1 µM on BRAF V600E and at KDR (VEGFR2) was above 89% in each case. The concentration for half-maximal inhibition (IC50) was below 1 µM in the assay with A375 cells and below 2 µM in the assay with A549 cells.

For the molecule `O=C(Nc1cccc(Cl)c1)Nc1ccc(F)c(C(=O)c2ccc3nccnc3c2)c1` [Compound C072, 1-(3-chlorophenyl)-3-(4-fluoro-3-(quinoxaline-6-carbonyl)phenyl)urea], the results for the inhibition at 1 µM at BRAF V600E and at KDR (VEGFR2) were above 89% and below 70%, respectively. The IC50 in the assay on A375 cells is 1 to 5 µM; with A549 cells, above 5 µM.

In the case of `O=C(Nc1ccc(C(F)(F)F)cc1)Nc1cc(F)cc(C(=O)c2ccc3nccnc3c2)c1` [Compound C066, 1-(3-fluoro-5-(quinoxaline-6-carbonyl)phenyl)-3-(4-(trifluoromethyl)phenyl)urea], the inhibition at 1 µM at BRAF V600E is above 89%; at KDR (VEGFR2), below 70%. The half-maximal inhibitory concentration (IC50) lay in the range of 1 to 5 µM in the assay on A375 cells and 2 to 5 µM in the assay on A549 cells.

Regarding `O=C(Nc1ccc(F)c(C(=O)c2ccc3ncc(N4CCNCC4)nc3c2)c1)Nc1ccc(Cl)c(C(F)(F)F)c1` [Compound C086], the inhibition at 1 µM on BRAF V600E and at KDR (VEGFR2) was above 89% in each case. The IC50 at KDR (VEGFR2) is below 0.1 µM; with A375 cells, below 1 µM; in the assay with A549 cells, 2 to 5 µM.

Take `O=C(Nc1cccc(Cl)c1)Nc1cc(F)cc(C(=O)c2ccc3nccnc3c2)c1` [Compound C068, 1-(3-chlorophenyl)-3-(3-fluoro-5-(quinoxaline-6-carbonyl)phenyl)urea]: the inhibition at 1 µM on BRAF V600E was above 89%; on KDR (VEGFR2), below 70%. Further, the concentration for half-maximal inhibition (IC50) in the assay with A375 cells and in the assay with A549 cells was above 5 µM each time.

In the case of `O=C(Nc1cc(F)cc(C(=O)c2ccc3nccnc3c2)c1)c1ccc(Cl)c(C(F)(F)F)c1` [Compound C127, 4-chloro-N-(3-fluoro-5-(quinoxaline-6-carbonyl)phenyl)-3-(trifluoromethyl)benzamide], the inhibition at 1 µM on BRAF V600E is 70 to 89%; on KDR (VEGFR2) it was below 70%. The IC50 in the assay on A375 cells and with A549 cells was above 5 µM throughout.

As for `O=C(Nc1cc(F)cc(C(=O)c2ccc3nccnc3c2)c1)Nc1ccc(F)c(Cl)c1` [Compound C067, 1-(3-chloro-4-fluorophenyl)-3-(3-fluoro-5-(quinoxaline-6-carbonyl)phenyl)urea], the inhibition at 1 µM at BRAF V600E is above 89%; on KDR (VEGFR2), below 70%. Also, the half-inhibitory concentration (IC50) in the assay with A375 cells lay within 1 to 5 µM; in the assay with A549 cells, 2 to 5 µM.

In the case of `O=C(Nc1ccc(C(F)(F)F)cc1)Nc1ccc(F)c(C(=O)c2ccc3ncc(N4CCOCC4)nc3c2)c1` [Compound C057, 1-(4-fluoro-3-(3-morpholinoquinoxaline-6-carbonyl)phenyl)-3-(4-(trifluoromethyl)phenyl)urea], the inhibition at 1 µM on BRAF V600E and at KDR (VEGFR2) was above 89% each time. Further, the 50% inhibitory concentration (IC50) in the assay with A375 cells is below 1 µM; in the assay with A549 cells it was below 2 µM.
